Data: PubChem BioAssay AID248 (DTP/NCI, 2004)
Toxic doses and inconclusive results are not listed.

Tested on: L1210 leukemia ip in BDF1 mice, survival T/C
Assay: NCI In Vivo Anticancer Drug Screen. Data for tumor model L1210 Leukemia (intraperitoneal) in B6D2F1 (BDF1) mice
Details: endpoint: mean survival time, higher = longer survival
Summary of the method: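 Tumor cells were implanted, animals were treated, and survival was followed. The result divides the treated measurement by the vehicle-control measurement.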

[1] = dose: 100.0 mg/kg/injection, schedule: Q04DX002 (ip), vehicle: Klucel (hydroxypropylcellulose) (HPC)
[2] = dose: 200.0 mg/kg/injection, schedule: Q04DX002 (ip), vehicle: Klucel (hydroxypropylcellulose) (HPC)
[3] = dose: 100.0 mg/kg/injection, schedule: Q01DX001 (ip), vehicle: saline with Tween-80
[4] = dose: 100.0 mg/kg/injection, schedule: Q01DX009 (ip), vehicle: saline with Tween-80
[5] = dose: 200.0 mg/kg/injection, schedule: Q01DX001 (ip), vehicle: saline with Tween-80
[6] = dose: 200.0 mg/kg/injection, schedule: Q01DX009 (ip), vehicle: saline with Tween-80
[7] = dose: 400.0 mg/kg/injection, schedule: Q01DX001 (ip), vehicle: saline with Tween-80
[8] = dose: 400.0 mg/kg/injection, schedule: Q01DX009 (ip), vehicle: saline with Tween-80
[9] = dose: 100.0 mg/kg/injection, schedule: Q01DX009 (ip), vehicle: Klucel (hydroxypropylcellulose) (HPC)
[10] = dose: 200.0 mg/kg/injection, schedule: Q01DX009 (ip), vehicle: Klucel (hydroxypropylcellulose) (HPC)
[11] = dose: 400.0 mg/kg/injection, schedule: Q01DX009 (ip), vehicle: Klucel (hydroxypropylcellulose) (HPC)
[12] = dose: 200.0 mg/kg/injection, schedule: Q01DX009 (ip), vehicle: saline
[13] = dose: 100.0 mg/kg/injection, schedule: Q01DX001 (ip), vehicle: saline
[14] = dose: 12.5 mg/kg/injection, schedule: Q01DX009 (ip), vehicle: saline with Tween-80
[15] = dose: 25.0 mg/kg/injection, schedule: Q01DX009 (ip), vehicle: saline with Tween-80
[16] = dose: 50.0 mg/kg/injection, schedule: Q01DX009 (ip), vehicle: saline with Tween-80
[17] = dose: 100.0 mg/kg/injection, schedule: Q04DX003 (ip), vehicle: saline with Tween-80
[18] = dose: 200.0 mg/kg/injection, schedule: Q04DX003 (ip), vehicle: saline with Tween-80
[19] = dose: 400.0 mg/kg/injection, schedule: Q04DX003 (ip), vehicle: saline with Tween-80
[20] = dose: 200.0 mg/kg/injection, schedule: Q01DX001 (ip), vehicle: saline
[21] = dose: 400.0 mg/kg/injection, schedule: Q01DX001 (ip), vehicle: saline

## CC(=O)Oc1c(-c2ccccc2)cc([N+](=O)[O-])cc1[N+](=O)[O-]
dose: 50.0 mg/kg/injection, schedule: Q04DX002 (ip), vehicle: Klucel (hydroxypropylcellulose) (HPC)
  T/C: 97 % of control
[1]
  T/C: 103 % of control
[2]
  T/C: 94 % of control

## F[Si](c1ccccc1)(c1ccccc1)c1cccc2ccccc12
[3]
  T/C: 96 % of control
[4]
  T/C: 98 % of control
[5]
  T/C: 102 % of control
[6]
  T/C: 92 % of control
[7]
  T/C: 94 % of control
[8]
  T/C: 93 % of control

## CCOC(=O)C1C(=O)C(C(=O)Nc2ccccc2)C(=O)C(C(=O)OCC)C1c1ccc(OC)c(OC)c1OC (stereo not drawn)
dose: 50.0 mg/kg/injection, schedule: Q01DX001 (ip), vehicle: saline with Tween-80
  T/C: 96 % of control
[3]
  T/C: 100 % of control
[5]
  T/C: 94 % of control

## Cc1ccc([N+](=O)[O-])cc1NC(=O)Nc1cccc2ccc(O)cc12
[9]
  T/C: 95 % of control
[10]
  T/C: 93 % of control
[11]
  T/C: 104 % of control

## O=C(O)CCSC(c1ccccc1)(c1ccccc1)c1ccccc1
dose: 25.0 mg/kg/injection, schedule: Q01DX009 (ip), vehicle: saline
  T/C: 102 % of control
dose: 50.0 mg/kg/injection, schedule: Q01DX009 (ip), vehicle: saline
  T/C: 103 % of control
dose: 100.0 mg/kg/injection, schedule: Q01DX009 (ip), vehicle: saline
  T/C: 96 % of control
[12]
  T/C: 100 % of control
dose: 300.0 mg/kg/injection, schedule: Q01DX009 (ip), vehicle: saline
  T/C: 96 % of control
dose: 400.0 mg/kg/injection, schedule: Q01DX009 (ip), vehicle: saline
  T/C: 96 % of control

## CCCC(=O)C(CC)C(OC(C)=O)(C(F)(F)F)C(F)(F)F (stereo not drawn)
dose: 75.0 mg/kg/injection, schedule: Q01DX009 (ip), vehicle: Klucel (hydroxypropylcellulose) (HPC)
  T/C: 87 % of control
dose: 150.0 mg/kg/injection, schedule: Q01DX009 (ip), vehicle: Klucel (hydroxypropylcellulose) (HPC)
  T/C: 89 % of control
dose: 300.0 mg/kg/injection, schedule: Q01DX009 (ip), vehicle: Klucel (hydroxypropylcellulose) (HPC)
  T/C: 87 % of control

## Oc1ccccc1/C=N/c1nc2ccc(Cl)cc2s1.Oc1ccccc1/C=N/c1nc2ccc(Cl)cc2s1.[Zn]
[13]
  T/C: 90 % of control

## CC(C)CCCC(C)C1CCC2C3CCC(CCO)C(C)(CCO)C3CCC12C (stereo not drawn)
[3]
  T/C: 97 % of control
[5]
  T/C: 92 % of control
[7]
  T/C: 94 % of control

## COc1cc(Cc2cnc(NC(C)=O)nc2NC(C)=O)cc(OC)c1OC
[14]
  T/C: 92 % of control
dose: 12.5 mg/kg/injection, schedule: Q04DX003 (ip), vehicle: saline with Tween-80
  T/C: 101 % of control
[15]
  T/C: 95 % of control
dose: 25.0 mg/kg/injection, schedule: Q04DX003 (ip), vehicle: saline with Tween-80
  T/C: 101 % of control
[16]
  T/C: 88 % of control
dose: 50.0 mg/kg/injection, schedule: Q04DX003 (ip), vehicle: saline with Tween-80
  T/C: 95 % of control

## CCOC(=O)c1cnc(SC)nc1Nc1ccccc1F
[17]
  T/C: 89 % of control
[18]
  T/C: 92 % of control

## CN(CCO)/N=N/c1nc[nH]c1C#N
dose: 100.0 mg/kg/injection, schedule: Q01DX001 (ip), vehicle: other
  T/C: 98 % of control
[4]
  T/C: 103 % of control
[17]
  T/C: 102 % of control
dose: 200.0 mg/kg/injection, schedule: Q01DX001 (ip), vehicle: other
  T/C: 100 % of control
[6]
  T/C: 103 % of control
[18]
  T/C: 107 % of control
dose: 400.0 mg/kg/injection, schedule: Q01DX001 (ip), vehicle: other
  T/C: 94 % of control
[8]
  T/C: 113 % of control
[19]
  T/C: 102 % of control

## Cc1cccc(N2CCC3(CC2)C(=O)NC(=S)NC3=O)c1
[13]
  T/C: 104 % of control
[20]
  T/C: 94 % of control
[21]
  T/C: 98 % of control

## O=C(Nc1ccccc1C(F)(F)F)c1ccc(C(=O)Nc2ccccc2C(F)(F)F)cc1
[4]
  T/C: 90 % of control
[17]
  T/C: 90 % of control
[6]
  T/C: 87 % of control
[18]
  T/C: 90 % of control
[8]
  T/C: 100 % of control
[19]
  T/C: 91 % of control

## O=[N+]([O-])c1ccc2cccnc2c1
dose: 75.0 mg/kg/injection, schedule: Q01DX001 (ip), vehicle: carboxymethylcellulose (CMC)
  T/C: 106 % of control
dose: 150.0 mg/kg/injection, schedule: Q01DX001 (ip), vehicle: carboxymethylcellulose (CMC)
  T/C: 104 % of control
dose: 300.0 mg/kg/injection, schedule: Q01DX001 (ip), vehicle: carboxymethylcellulose (CMC)
  T/C: 101 % of control

## O=c1[nH]c2cc3[nH]c(=O)c(=O)c3cc2c1=O
[9]
  T/C: 102 % of control
[10]
  T/C: 100 % of control
[11]
  T/C: 100 % of control

## Cc1cc(=O)[nH]c(N(CCO)CCO)n1
[4]
  T/C: 92 % of control
[17]
  T/C: 94 % of control
[6]
  T/C: 100 % of control
[18]
  T/C: 96 % of control
[8]
  T/C: 100 % of control
[19]
  T/C: 100 % of control

## NC(=Nc1ccc(Cl)cc1)N/N=C/c1ccc(Cl)cc1
dose: 5.0 mg/kg/injection, schedule: Q01DX001 (ip), vehicle: saline
  T/C: 94 % of control
dose: 10.0 mg/kg/injection, schedule: Q01DX001 (ip), vehicle: saline
  T/C: 100 % of control
dose: 20.0 mg/kg/injection, schedule: Q01DX001 (ip), vehicle: saline
  T/C: 94 % of control
dose: 40.0 mg/kg/injection, schedule: Q01DX001 (ip), vehicle: saline
  T/C: 91 % of control
dose: 80.0 mg/kg/injection, schedule: Q01DX001 (ip), vehicle: saline
  T/C: 91 % of control
[13]
  T/C: 92 % of control
[20]
  T/C: 89 % of control
[21]
  T/C: 103 % of control

## COC(=O)c1cn[nH]c1/N=N/N(C)CCO
[13]
  T/C: 113 % of control
dose: 100.0 mg/kg/injection, schedule: Q04DX003 (ip), vehicle: saline
  T/C: 119 % of control
[20]
  T/C: 117 % of control
[12]
  T/C: 163 % of control
dose: 200.0 mg/kg/injection, schedule: Q04DX003 (ip), vehicle: saline
  T/C: 119 % of control
[21]
  T/C: 107 % of control
dose: 400.0 mg/kg/injection, schedule: Q04DX003 (ip), vehicle: saline
  T/C: 119 % of control

## Clc1cc(Cl)c(C[N+]23CN4CN(CN(C4)C2)C3)cc1Cl
[14]
  T/C: 102 % of control
[15]
  T/C: 104 % of control
[16]
  T/C: 102 % of control
[4]
  T/C: 120 % of control
[6]
  T/C: 121 % of control

## O=C(NCCCl)N(O)C12CC3CC(CC(C3)C1)C2
[3]
  T/C: 90 % of control
[5]
  T/C: 97 % of control
[7]
  T/C: 98 % of control

## Cc1cccc(NS(=O)(=O)c2ccccc2)c1C
[9]
  T/C: 91 % of control
dose: 100.0 mg/kg/injection, schedule: Q04DX003 (ip), vehicle: Klucel (hydroxypropylcellulose) (HPC)
  T/C: 97 % of control
[10]
  T/C: 91 % of control
dose: 200.0 mg/kg/injection, schedule: Q04DX003 (ip), vehicle: Klucel (hydroxypropylcellulose) (HPC)
  T/C: 93 % of control
[11]
  T/C: 98 % of control
dose: 400.0 mg/kg/injection, schedule: Q04DX003 (ip), vehicle: Klucel (hydroxypropylcellulose) (HPC)
  T/C: 98 % of control

## CSc1ccccc1NC(=O)c1cccc([N+](=O)[O-])c1
[1]
  T/C: 105 % of control
[2]
  T/C: 99 % of control
dose: 400.0 mg/kg/injection, schedule: Q04DX002 (ip), vehicle: Klucel (hydroxypropylcellulose) (HPC)
  T/C: 86 % of control
